Reference: patent US10440955B2, “Methods comprising a biocidal polyamine” (Curza Global, LLC, priority 2013, dated 2019)
Structures can show the parent of a compound that is named as a salt. Where two headings read alike, the source gives them in different places.

Columns and labels:
P. aeruginosa = assay: MIC, 96-well CAMHB, 10^5 to 10^2 CFU/mL in 24 hours; format: cell-based, Pseudomonas aeruginosa; settings: for MIC: Pseudomonas aeruginosa
Procedure, shortened: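 Broth microdilution in CAMHB with about 5×10^5 CFU/mL inoculum, incubated 24 h at 37 °C with graded polyamine compound concentrations. Surviving CFU/mL determined by plating each well on TSA for 24 h at 37 °C; n=8 per concentration.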

A. baumannii = assay: as above; format: cell-based, Acinetobacter baumannii; settings: for MIC: Acinetobacter baumannii
Description: To determine the MIC of polyamine compounds, the protocol described herein was used.
In brief, a 0.5 McFarland of each bacterial isolate was made. A 0.5 McFarland is a measure of turbidity in a liquid sample that contains approximately 1×10^∧8 CFU/mL. The 0.5 McFarland standard was diluted in cation adjusted Mueller Hinton Broth (CAMHB), and 50 μL of broth were added to a well of a 96-well plate. In addition, 50 μL of CAMHB that contained a desired concentration of antimicrobial were also added to the well for a final volume of 100 μL and a final concentration of approximately 5×10^4 CFU/well (which equated to approximately 5×10^5 CFU/mL). Each well contained a desired amount of polyamine compound in order to experimentally determine the MIC. Each 96-well plate was incubated at 37° C. for 24 hours. The contents of each well were plated on tryptic soy agar (TSA). TSA plates were incubated for 37° C. for 24 hours after which the number of CFU were counted and used to calculate the CFU/mL that remained after exposure to varying concentrations of compound. This procedure was repeated n=8 times for each concentration of antimicrobial.
A 0.5 McFarland of A. baumannii is made. A 0.5 McFarland is a measure of turbidity in a liquid sample that contains approximately 7.5×10^7 CFU/mL. The 0.5 McFarland standard is diluted in CAMHB and 50 μL of broth is added to a well of a 96-well plate. In addition, 50 μL of CAMHB that contains a desired concentration of antimicrobial is added to the well for a final volume of 100 μL and a final concentration of approximately 5×10^4 CFU/well (which equates to approximately 5×10^5 CFU/mL). Each well contains a desired amount of CZ compound in order to experimentally determine the MIC. Each 96-well plate is incubated at 37° C. for 24 hours. The contents of each well is plated on tryptic soy agar (TSA). TSA plates is incubated at 37° C. for 24 hours after which the number of CFUs is counted and used to calculate the CFU/mL that remain after exposure to varying concentrations of compound. This procedure is repeated n=8 times for each concentration of antimicrobial. […]

A. baumannii biofilms = assay: EBEC, high number biofilms on PEEK membranes, 10^9 to 10^2 CFU/PEEK membrane in 24 hours; format: cell-based, Acinetobacter baumannii
Description: In addition to determining the MIC and the MBEC of polyamine compounds against planktonic bacteria and low number biofilms, our group wanted to determine the efficacy of polyamine compounds against high number biofilms. To do so, biofilms were grown on the surface of polyetheretherketone (PEEK) membranes using a membrane biofilm reactor. This reactor is similar to the CDC biofilm reactor, but rather than growing biofilms on coupon surfaces, the reactor was modified to hold PEEK membranes. In short, to grow biofilms within this system, 500 mL of brain heart infusion (BHI) broth were inoculated with 1 mL of a 0.5 McFarland. The reactor was placed on a hot plate set at 34° C. and the bacteria were grown under batch conditions for 24 hours. Following this protocol, biofilms typically grow to 10^9 CFU/PEEK membrane. […] A solution of 10% BHI was then flowed through the reactor at a rate of 6.94 mL/min for an additional 24 hours. PEEK membranes were then removed and placed into 2 mL of CAMHB that contained a desired concentration of polyamine compound or antibiotic. The EBEC was defined as the concentration of antimicrobial required to reduce a biofilm from approximately 10^9 CFU/PEEK membrane to approximately 10^2 CFU/PEEK membrane in a 24-hour period.
In addition to determining the MIC and the MBEC of compounds against planktonic bacteria and low number biofilms, the efficacy of the compounds of the invention against high number biofilms is determined. To do so, biofilms are grown on the surface of PEEK membranes using a membrane biofilm reactor (Williams, D. L., Haymond, B. S. & Bloebaum, R. D. Use of delrin plastic in a modified CDC biofilm reactor. Res J Microbiol 6, 425-429 (2011); Williams, D. L., Woodbury, K. L., Haymond, B. S., Parker, A. E. & Bloebaum, R. D. A modified CDC biofilm reactor to produce mature biofilms on the surface of PEEK membranes for an in vivo animal model application. Curr Microbiol 62, 1657-1663 (2011); Williams, D. L. et al., In Vivo Efficacy of a Silicone—Cationic Steroid Antimicrobial Coating to Prevent Implant-Related Infection. Biomaterials 33, 8641-8656 (2012); Williams, D. L. et al., Experimental model of biofilm implant-related osteomyelitis to test combination biomaterials using biofilms as initial inocula. J Biomed Mat Res A 100, 1888-1900 (2012)). This reactor is similar to the CDC biofilm reactor, but rather than growing biofilms on coupon surfaces, the reactor was modified to hold PEEK membranes. In short, to grow biofilms within this system, 500 mL of brain heart infusion (BHI) broth is inoculated with 1 mL of a 0.5 McFarland. The reactor is placed on a hot plate set at 34° C. and the bacteria grown under batch conditions for 24 hours. A solution of 10% BHI will then be flowed through the reactor at a rate of 6.94 mL/min for an additional 24 hours. Following this protocol, biofilms typically grow to 10^9 CFU/PEEK membrane. PEEK membranes is removed and placed into 2 mL of CAMHB that contain a desired concentration of the test compound. The EBEC is defined as the concentration of antimicrobial required to reduce a biofilm from approximately 10^9 CFU/PEEK membrane to approximately 10^2 CFU/PEEK membrane in a 24-hour period.
EBEC data were collected to determine the efficacy of CZ-52, CZ-58 and traditional antibiotics against high number biofilms containing approximately 10^9 CFU grown on the surface of a polyetheretherketone (PEEK) membrane. […] In contrast, at 250 μg/mL CZ-52 was able to reduce MRSA biofilms by greater than 7 log10 units in a 24-hour period. Although the MIC of CZ-58 was lower against MRSA compared to A. baumannii, CZ-58 had greater activity against biofilms of A. baumannii than against MRSA biofilms in the EBEC assay. […] Although the MIC of CZ-58 was “high” compared to MICs of traditional antibiotics, the efficacy against biofilms was promising.

| Molecule | EBEC μg/mL (μM) A. baumannii (A. baumannii biofilms; Table 4) | EBEC μg/mL (μM) A. baumannii (A. baumannii biofilms; Table 4, value in parentheses) | MIC (A. baumannii; read-out: MIC (A. bumannii)) [µM] | MIC (P. aeruginosa) (P. aeruginosa; Table 5) | also measured |
| --- | --- | --- | --- | --- | --- |
| NCCCNCCCNCc1ccccc1 [CZ-7, benzylnorspermidine] | >10,000 μg/mL | (>45,180) μM |  |  | MIC (P. aeruginosa; Table 3A c2, read-out: MICs (μg/mL): P. aeruginosa): > 500 µg/mL; MIC (P. aeruginosa; Table 5, read-out: MIC (P. aeruginosa)): > 100 µM; MIC (A. baumannii; Table 3A c3, read-out: MICs (μg/mL): A. baumannii): > 500 µg/mL; MIC (A. baumannii; Table 4, value in parentheses, read-out: MIC μg/mL (μM) A. baumannii): > 2260 µM; MIC (A. baumannii; Table 4, read-out: MIC μg/mL (μM) A. baumannii): > 500 µg/mL |
| NCCCNCCCNCc1cccc(CNCCCNCCCN)c1 [CZ-25, N^1,N^1′-(1,3-phenylenebis(methylene))bis(N3-(3-ammoniopropyl)propane-1,3-diaminium) chloride] | ~7,500 μg/mL |  | > 100 |  | MIC (P. aeruginosa; read-out: MICs (μg/mL): P. aeruginosa, Table 3A c2): 500 µg/mL |
| NCCCNCCCNCc1cc(CNCCCNCCCN)cc(CNCCCNCCCN)c1 [CZ-52, N^1,N^1′,N^1″-(benzene-1,3,5-triyltris(methylene))tris(N^3-(3-aminopropyl)propane-1,3-diamine), hydrochloride salt] | ~7,000 μg/mL | (~14,000) μM |  |  |  |
| NCCCNCCCNCc1cc(CNCCCNCCCN)cc(-c2ccccc2)c1 [CZ-58, N^1,N^1′-([1,1′-biphenyl]-3,5-diylbis(methylene))bis(N^3-(3-ammoniopropyl)propane-1,3-diaminium) chloride] | 400 µg/mL |  | 50 to 100 | ++ to +++ |  |
| CC(C)CNCCCNCCCNCc1cc(CNCCCNCCCNCC(C)C)cc(-c2ccccc2)c1 [CZ-86, N^1,N^1′-([1,1′-biphenyl]-3,5-diylbis(methylene))bis(N^3-(3-(isobutylamino)propyl)propane-1,3-diamine), hydrochloride salt] |  |  | < 50 | ++ to +++ |  |
| Polymyxin B sulfate [reference compound] | 1,000 μg/mL | (722) μM |  |  | MICs (μg/mL): A. baumannii (A. baumannii; Table 3A c3): 2 µg/mL; MIC μg/mL (μM) A. baumannii (A. baumannii; Table 4): 1 µg/mL; MIC μg/mL (μM) A. baumannii (A. baumannii; Table 4, value in parentheses): (0.7) μM |
